The test system of one assay is cJun bZIP. Kind of assay: CD thermal denaturation of heterodimer with cJun bZIP. Format: binding, human. The procedure:
Figure 5 TBS winner peptide HingeW binds cJun preferentially over A-FosW. CD spectra (20 °C) show the binding of cJun to either (A) HingeW or (B) A-FosW. […] However, the effect is larger for HingeW, indicating a greater increase in peptide helicity. Similarly, the thermal denaturation of cJun bound to either (C) HingeW or (D) A-FosW is right-shifted from the average of the component peptide denaturation profiles. […] CD dimer exchange spectra show (E) an increase in helicity when HingeW is mixed with the A-FosW/cJun heterodimer as the HingeW exchanges with the A-FosW due to the binding preference of cJun for HingeW and (F) no shift from the average is observed when A-FosW is mixed with the HingeW/cJun heterodimer, indicating no change in dimer populations. Arrows are shown to highlight the shift from the average at 190 and 222 nm. In all experiments, the total sample peptide concentration was fixed to 10 μM, using equimolar concentrations of each component peptide to remove concentration-dependent effects. […]
(§1) µM) alongside ampicillin, kanamycin and chloramphenicol to maintain the required plasmids, and IPTG (1 mM) to induce protein expression. The library transformants were […]
(§2) however a lower stringency is used initially before selection is increased in later steps.
(§3) Colonies from this first round of selection were pooled and serially grown in liquid culture at starting OD600 of 0.05 and grown at 37°C with shaking at 200 rpm until the OD600 […]
increased to the optimum 4 µM in subsequent passages. Bacteria containing the most effective functional antagonists were expected to produce higher levels of TRE-mDHFR which provides a growth advantage, and these will dominate the culture. At each passage step, a sample of the culture was plated on LB agar (supplemented with antibiotics to maintain plasmids) to select and sequence individual colonies, and a DNA pool was also sequenced. This allows the occurrence of library members to be monitored as winner sequences are selected for. […]

A further assay concerns the target T1, cJun (Homo sapiens, UniProt P05412).
T1 construct: The human cJun bZIP domain spans from Arg252 to Leu308; His-SUMO (N, cleaved yes); AS cap (two residues Ala-Ser) (N); GAP cap (three residues Gly-Ala-Pro) (C); made in house; host or cells: E. coli (pET21-His-SUMO plasmid)
Nature of the assay: CD dimer exchange, competition for cJun. The class given is binding. To be noted: A-FosW added to preformed HingeW/cJun heterodimer; total peptide 10 μM. As for the experimental part:
Figure 5 TBS winner peptide HingeW binds cJun preferentially over A-FosW. CD spectra (20 °C) show the binding of cJun to either (A) HingeW or (B) A-FosW. […] However, the effect is larger for HingeW, indicating a greater increase in peptide helicity. Similarly, the thermal denaturation of cJun bound to either (C) HingeW or (D) A-FosW is right-shifted from the average of the component peptide denaturation profiles. […]
Direct competition between HingeW and A-FosW for cJun binding was observed using CD dimer exchange experiments in which a solution containing one antagonist/cJun mixture was combined with the other antagonist to observe potential changes in α-helicity, as an indicator of a change in cJun dimerization partner. In this case, when HingeW was mixed with the preformed A-FosW/cJun heterodimer, a 17% increase in helicity was observed, as measured at 222 nm, relative to the average of the component signals (Figure 5E). […]
increased to the optimum 4 µM in subsequent passages. […] This allows the occurrence of library members to be monitored as winner sequences are selected for. […]

For a further assay, the system named is TRE DNA. Kind of assay: CD TRE DNA peak, binding of cJun to TRE DNA. The following applies: cJun 20 μM, TRE DNA 5 μM, ~281 nm. The procedure: The binding of cJun to TRE DNA can be observed by monitoring a DNA absorbance peak in the CD spectrum centered at ∼281 nm.[44] […] The addition of cJun (20 μM) to TRE DNA (5 μM) decreases this DNA peak by 55% as the cJun engages its target TRE site and alters the DNA structure (Figure 6A). Subsequent titration of HingeW into this bound cJun/TRE DNA mixture reverses the peak shift, with the peak increasing as DNA is released. […]
as §1, §2, §3
increased to the optimum 4 µM in subsequent passages. Bacteria containing the most effective functional antagonists were expected to produce higher levels of TRE-mDHFR which provides a growth advantage, and these will dominate the culture. […] This allows the occurrence of library members to be monitored as winner sequences are selected for. […]

T1 sequence (P05412 252-308): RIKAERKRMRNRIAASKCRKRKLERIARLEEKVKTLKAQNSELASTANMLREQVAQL

“LEQRAEELARENEELEKEAEELEQELDELQAEIEQLEERNYALRKEIEDLQKQLEKL [A-FosW, N-terminal AS and C-terminal GAP caps, 6xHis-tagged]”: the “smaller initial transition of heterodimer with cJun (double transition)” value in the assay on cJun bZIP (222 nm thermal denaturation) was approximately 30 °C. For the same substance, the “Tm of heterodimer with cJun” value in the assay with cJun bZIP (222 nm, 1-90 °C at 1 °C increments, total peptide 10 μM equimolar, pH 7.4, two-state model) was determined as 69.9 °C. Also, the “ΔTm from component average (heterodimer with cJun)” value in the assay with cJun bZIP (heterodimer Tm minus average of component peptide denaturation profiles, for HingeW an estimate because homodimer Tm undeterminable) is 27.5 °C. Moreover, the “dimer exchange on mixing with preformed heterodimer” value at cJun was “no dimer exchange had occurred”.

As to “cJun bZIP: human cJun bZIP domain, Arg252 to Leu308 (target protein)”, the “decrease of TRE DNA CD peak upon addition of cJun” value in the assay with TRE DNA is recorded as 55%.

The values are drawn from PMC9088798, “An Approach to Derive Functional Peptide Inhibitors of Transcription Factor Activity” (JACS Au, 2022).
